Experiments:
[1] = target: PTGER2 (EP2) (Homo sapiens (Human), UniProt P43116); test: hEP2 b-arrestin assay (PathHunter HEK 293 PTGER2 b-arrestin cells); format: cell-based; settings: antagonistic activity, beta-arrestin assay; read-out: hEP2 b-arr IC50
Description: Plate is pre-incubated 15 minutes at 37° C. Then five microliters of PGE2 (final conc. 5 μM) are transferred into the assay plate. Plate is incubated 120 minutes at 37° C.
(each concentration is measured in duplicate)

[2] = target: EP2 (Homo sapiens (Human), UniProt P43116); test: hEP2 cAMP assay (SF295 glioblastoma cells, HTRF cAMP); format: cell-based; settings: antagonistic activity
How it was run: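 PGE2-driven cAMP accumulation was measured by HTRF in SF295 cells, which express endogenous EP2 only. Cells in assay buffer with 2 mM IBMX were pre-incubated 45 min at RT, then incubated 30 min at RT. Detection used competition between cellular cAMP and d2-cAMP for a cryptate anti-cAMP antibody.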

[3] = target: EP4 (Homo sapiens (Human), UniProt P35408); test: hEP4 cAMP assay (BT549 breast cancer cells, HTRF cAMP); format: cell-based; settings: antagonistic activity, PGE2 6 nM
How it was run: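 cAMP accumulation quantified by HTRF competition between cellular cAMP and d2-labeled cAMP for cryptate anti-cAMP antibody. Cells: endogenously EP4-expressing BT549, buffer with 2 mM IBMX; 45 min RT compound preincubation preceded 30 min RT challenge with PGE2 at 6 nM final.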

[4] = target: PTGER4 (EP4) (Homo sapiens (Human), UniProt P35408)
PTGER4 (EP4), sequence (P35408 whole entry): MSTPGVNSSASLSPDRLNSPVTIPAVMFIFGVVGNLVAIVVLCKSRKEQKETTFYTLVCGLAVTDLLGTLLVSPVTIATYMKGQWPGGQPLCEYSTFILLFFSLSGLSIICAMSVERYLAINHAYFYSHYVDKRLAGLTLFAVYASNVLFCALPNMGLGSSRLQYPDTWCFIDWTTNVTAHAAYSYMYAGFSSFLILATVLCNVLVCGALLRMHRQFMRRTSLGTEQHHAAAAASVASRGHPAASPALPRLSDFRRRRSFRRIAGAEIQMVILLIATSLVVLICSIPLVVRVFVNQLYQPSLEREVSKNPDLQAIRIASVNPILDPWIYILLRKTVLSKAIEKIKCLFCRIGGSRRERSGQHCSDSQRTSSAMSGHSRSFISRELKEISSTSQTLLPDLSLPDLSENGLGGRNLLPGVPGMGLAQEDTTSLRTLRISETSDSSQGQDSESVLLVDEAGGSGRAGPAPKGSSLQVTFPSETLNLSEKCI

EP4, sequence (P35408 whole entry): as above
PTGER2 (EP2), sequence (P43116 whole entry): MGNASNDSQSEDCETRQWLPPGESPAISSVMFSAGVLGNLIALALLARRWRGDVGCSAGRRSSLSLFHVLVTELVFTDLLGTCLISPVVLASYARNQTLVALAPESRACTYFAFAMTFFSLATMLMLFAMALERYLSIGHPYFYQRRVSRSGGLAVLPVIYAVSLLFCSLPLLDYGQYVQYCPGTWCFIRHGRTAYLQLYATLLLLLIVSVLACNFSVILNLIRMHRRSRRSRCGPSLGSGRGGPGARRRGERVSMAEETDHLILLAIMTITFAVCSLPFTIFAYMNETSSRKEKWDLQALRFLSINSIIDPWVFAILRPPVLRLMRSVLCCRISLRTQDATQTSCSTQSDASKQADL
EP2, sequence (P43116 whole entry): as above

Molecule: 2-Ethoxy-4-{6-[2-(7-ethynyl-2,3-dihydro-benzo[1,4]dioxin-6-yl)-ethylamino]-pyrimidin-4-yl}-benzoic acid [Example 439]
- IC50 [1]: 17 nM
- IC50 [2]: 33 nM
- IC50 ([3]; BT549 cells): 139 nM
- IC50 [4]: 197 nM

Molecule: CCOc1cc(-c2cc(NCCc3c(OC)cc4ccccc4c3C)ncn2)sc1C(=O)O [Ex 1]
- IC50 [1]: 6 nM
- IC50 [2]: 8 nM
- IC50 [3]: 1 nM
- IC50 [4]: 2 nM

Molecule: CCOc1cc(-c2cc(NCCc3c(C#N)cc4ccccc4c3C)ncn2)sc1C(=O)O [Ex 2]
- IC50 [1]: 113 nM
- IC50 [2]: 79 nM
- IC50 [3]: 1 nM
- IC50 [4]: 3 nM

Molecule: CCOc1cc(-c2cc(NCCc3cc4c(cc3C#N)OCCO4)ncn2)sc1C(=O)O [Ex 6]
- IC50 [1]: 11 nM
- IC50 [2]: 37 nM
- IC50 [3]: 4 nM
- IC50 [4]: 6 nM

Molecule: CCOc1cc(-c2cc(NCCc3ccc4c(c3)CCS4)ncn2)sc1C(=O)O [Ex 15]
- IC50 [1]: 177 nM
- IC50 [2]: 28 nM
- IC50 [3]: 8 nM
- IC50 [4]: 12 nM

Molecule: C#Cc1c(CCNc2cc(-c3cc(OCC)c(C(=O)O)s3)ncn2)ccc2ccccc12 [Ex 17]
- IC50 [1]: 108 nM
- IC50 [2]: 171 nM
- IC50 [3]: 9 nM
- IC50 [4]: 8 nM

Molecule: CCOc1cc(-c2cc(NCCc3ccc4sccc4c3C)ncn2)sc1C(=O)O [Ex 20]
- IC50 [1]: 27 nM
- IC50 [2]: 11 nM
- IC50 [3]: 12 nM
- IC50 [4]: 74 nM

Molecule: CCOc1cc2ccccc2cc1CCNc1cc(-c2cc(OCC)c(C(=O)O)s2)ncn1 [Ex 23]
- IC50 [1]: 15 nM
- IC50 [2]: 19 nM
- IC50 [3]: 14 nM
- IC50 [4]: 3 nM

Molecule: COc1cc2ccccc2c(F)c1CCNc1cc(-c2ccc(C(=O)O)c(OC3CCC3)c2)ncn1 [Ex 25]
- IC50 [1]: 96 nM
- IC50 [2]: 98 nM
- IC50 [3]: 22 nM
- IC50 [4]: 16 nM

Molecule: CCOc1cc(-c2cc(NCCc3cc4c(cc3OC)OCCO4)ncn2)sc1C(=O)O [Ex 26]
- IC50 [1]: 19 nM
- IC50 [2]: 19 nM
- IC50 [3]: 16 nM
- IC50 [4]: 22 nM

Molecule: CCOc1cc(-c2cc(NCCc3ccc4scc(C#N)c4c3)ncn2)sc1C(=O)O [Ex 27]
- IC50 [1]: 75 nM
- IC50 [2]: 19 nM
- IC50 [3]: 17 nM
- IC50 [4]: 16 nM

Molecule: COc1cc2ccccc2c(F)c1CCNc1cc(-c2ccc(C(=O)O)c(SC)c2)ncn1 [Ex 29]
- IC50 [1]: 53 nM
- IC50 [2]: 52 nM
- IC50 [3]: 17 nM
- IC50 [4]: 33 nM

Molecule: CCOc1cc(-c2cc(NCCc3cc(F)c4c(c3)OCCO4)ncn2)sc1C(=O)O [Ex 35]
- IC50 [1]: 359 nM
- IC50 [2]: 194 nM
- IC50 [3]: 18 nM
- IC50 [4]: 23 nM

Molecule: CCOc1cc(-c2cc(NCCc3c(F)cc4ncccc4c3F)ncn2)sc1C(=O)O [Ex 43]
- IC50 [1]: 54 nM
- IC50 [2]: 43 nM
- IC50 [3]: 21 nM
- IC50 [4]: 44 nM

Molecule: CCOc1cc(-c2cc(NCCc3cc4ccccc4cc3OC(F)F)ncn2)sc1C(=O)O [Ex 45]
- IC50 [1]: 127 nM
- IC50 [2]: 185 nM
- IC50 [3]: 21 nM
- IC50 [4]: 5 nM

Molecule: CSc1cc(-c2cc(NCCc3c(C#N)cc4ccccc4c3C)ncn2)ccc1C(=O)O [Ex 52]
- IC50 [1]: 318 nM
- IC50 [2]: 158 nM
- IC50 [3]: 25 nM
- IC50 [4]: 63 nM

Molecule: CCOc1cc2sccc2cc1CCNc1cc(-c2ccc(OCC(=O)O)c(OCC)c2)ncn1 [Ex 53]
- IC50 [1]: 5 nM
- IC50 [2]: 12 nM
- IC50 [3]: 25 nM
- IC50 [4]: 12 nM

Molecule: COc1cc2ccccc2c(C)c1CCNc1cc(-c2ccc(C(=O)O)c(SC)c2)ncn1 [Ex 59]
- IC50 [1]: 37 nM
- IC50 [2]: 18 nM
- IC50 [3]: 30 nM
- IC50 [4]: 94 nM

Molecule: CCOc1cc(-c2cc(NCCc3c(OC)cc4ccccc4c3C)ncn2)ccc1CC(=O)O [Ex 61]
- IC50 [1]: 148 nM
- IC50 [2]: 214 nM
- IC50 [3]: 46 nM
- IC50 [4]: 28 nM

Molecule: COc1cc2sccc2cc1CCNc1cc(-c2ccc(C(=O)O)c(OC3CCC3)c2)ncn1 [Ex 63]
- IC50 [1]: 16 nM
- IC50 [2]: 12 nM
- IC50 [3]: 33 nM
- IC50 [4]: 50 nM

Molecule: CCOc1cc(-c2cc(NCCc3cc4c(cc3C#N)OCO4)ncn2)sc1C(=O)O [Ex 64]
- IC50 [1]: 25 nM
- IC50 [2]: 28 nM
- IC50 [3]: 33 nM
- IC50 [4]: 41 nM

Molecule: CCOc1cc(-c2cc(NCCc3ccc4ncccc4c3F)ncn2)sc1C(=O)O [Ex 69]
- IC50 [1]: 438 nM
- IC50 [2]: 222 nM
- IC50 [3]: 38 nM
- IC50 [4]: 59 nM

Molecule: CCOc1cc(-c2cc(NCCc3c(C#N)cc4ccccc4c3F)ncn2)ccc1C(=O)O [Ex 73]
- IC50 [1]: 809 nM
- IC50 [2]: 1770 nM
- IC50 [3]: 39 nM
- IC50 [4]: 91 nM

Molecule: CSc1cc(-c2cc(NCCc3cc4ccsc4cc3C#N)ncn2)ccc1C(=O)O [Ex 77]
- IC50 [1]: 47 nM
- IC50 [2]: 25 nM
- IC50 [3]: 43 nM
- IC50 [4]: 154 nM

Molecule: COc1cc2ccccc2c(C)c1CCNc1cc(-c2ccc(C(=O)O)c(OC3CCC3)c2)ncn1 [Ex 79]
- IC50 [1]: 43 nM
- IC50 [2]: 83 nM
- IC50 [3]: 44 nM
- IC50 [4]: 56 nM

Molecule: CCOc1cc(-c2cc(NCCc3cc4ccsc4cc3OC)ncn2)ccc1OCC(=O)O [Ex 80]
- IC50 [1]: 17 nM
- IC50 [2]: 37 nM
- IC50 [3]: 45 nM
- IC50 [4]: 32 nM

Molecule: CCOc1cc(-c2cc(NCCc3cc4cccnc4c(C)c3Cl)ncn2)sc1C(=O)O [Ex 87]
- IC50 [1]: 173 nM
- IC50 [2]: 134 nM
- IC50 [3]: 51 nM
- IC50 [4]: 85 nM

Molecule: CCOc1cc(-c2cc(NCCc3ccc4scnc4c3)ncn2)sc1C(=O)O [Ex 88]
- IC50 [1]: 107 nM
- IC50 [2]: 64 nM
- IC50 [3]: 53 nM
- IC50 [4]: 59 nM

Molecule: CCOc1cc(-c2cc(NCCc3cc(F)c4cc(C)sc4c3OC)ncn2)sc1C(=O)O [Ex 94]
- IC50 [1]: 423 nM
- IC50 [2]: 528 nM
- IC50 [3]: 59 nM
- IC50 [4]: 49 nM

Molecule: CCOc1cc(-c2cc(NCCc3ccc4sccc4c3)nc(C)n2)sc1C(=O)O [Ex 96]
- IC50 [1]: 148 nM
- IC50 [2]: 57 nM
- IC50 [3]: 61 nM
- IC50 [4]: 92 nM

Molecule: CSc1cc(-c2cc(NCCc3cc4c(cc3C#N)OCCO4)ncn2)ccc1C(=O)O [Ex 97]
- IC50 [1]: 192 nM
- IC50 [2]: 78 nM
- IC50 [3]: 63 nM
- IC50 [4]: 147 nM

Molecule: CCOc1cc(-c2cc(NCCc3cc4ccsc4cc3OC)ncn2)ccc1C(=O)O [Ex 109]
- IC50 [1]: 34 nM
- IC50 [2]: 12 nM
- IC50 [3]: 78 nM
- IC50 [4]: 101 nM

Molecule: CCOc1cc(-c2cc(NCCc3ccc4c(c3)CCO4)ncn2)sc1C(=O)O [Ex 114]
- IC50 [1]: 222 nM
- IC50 [2]: 222 nM
- IC50 [3]: 85 nM
- IC50 [4]: 640 nM

Molecule: COc1cc2ccccc2c(F)c1CCNc1cc(-c2ccc(CC(=O)O)c(SC)c2)ncn1 [Ex 115]
- IC50 [1]: 243 nM
- IC50 [2]: 682 nM
- IC50 [3]: 85 nM
- IC50 [4]: 53 nM

Molecule: CCOc1cc(-c2cc(NCCc3cc4cccnc4c(F)c3Cl)ncn2)sc1C(=O)O [Ex 117]
- IC50 [1]: 53 nM
- IC50 [2]: 61 nM
- IC50 [3]: 88 nM
- IC50 [4]: 131 nM

Molecule: CCOc1cc(-c2cc(NCCc3cc4ccsc4cc3OC)ncn2)ccc1CC(=O)O [Ex 118]
- IC50 [1]: 34 nM
- IC50 [2]: 66 nM
- IC50 [3]: 88 nM
- IC50 [4]: 74 nM

Molecule: CCOc1cc(-c2cc(NCCc3cc4c(cc3OC)OCCO4)ncn2)ccc1OCC(=O)O [Ex 120]
- IC50 [1]: 114 nM
- IC50 [2]: 111 nM
- IC50 [3]: 92 nM
- IC50 [4]: 61 nM

Molecule: CCOc1cc2sccc2cc1CCNc1cc(-c2ccc(C(=O)O)c(OCC)c2)ncn1 [Ex 126]
- IC50 [1]: 8 nM
- IC50 [2]: 6 nM
- IC50 [3]: 101 nM
- IC50 [4]: 66 nM

Molecule: CCOc1cc(-c2cc(NCCc3cc4ccsc4cc3C#N)ncn2)ccc1C(=O)O [Ex 128]
- IC50 [1]: 151 nM
- IC50 [2]: 76 nM
- IC50 [3]: 103 nM
- IC50 [4]: 192 nM

Molecule: CCOc1cc(-c2cc(NCCc3ccc4sncc4c3)ncn2)sc1C(=O)O [Ex 135]
- IC50 [1]: 198 nM
- IC50 [2]: 171 nM
- IC50 [3]: 115 nM
- IC50 [4]: 172 nM

Molecule: CSc1cc(-c2cc(NCCc3ccc4c(c3)CCS4)ncn2)ccc1C(=O)O [Ex 138]
- IC50 [1]: 74 nM
- IC50 [2]: 61 nM
- IC50 [3]: 120 nM
- IC50 [4]: 358 nM

Molecule: CCOc1cc(-c2cc(NCCc3ccc4ncoc4c3)ncn2)sc1C(=O)O [Ex 146]
- IC50 [1]: 258 nM
- IC50 [2]: 115 nM
- IC50 [3]: 137 nM
- IC50 [4]: 361 nM

Molecule: O=C(O)c1ccc(-c2cc(NCCc3ccc4scnc4c3)ncn2)cc1OC1CCC1 [Ex 291]
- IC50 [2]: 269 nM
- IC50 [3]: 538 nM
- IC50 [4]: 815 nM

Molecule: CCOc1cc(-c2cc(NCCc3ccc4sccc4c3)nc(C)n2)ccc1CC(=O)O [Ex 308]
- IC50 [2]: 926 nM
- IC50 [3]: 674 nM
- IC50 [4]: 866 nM

Molecule: CCOc1cc(-c2cc(NCCc3cc4ccccc4cc3NC)ncn2)ccc1C(=O)O [Ex 312]
- IC50 [2]: 2490 nM
- IC50 [3]: 689 nM
- IC50 [4]: 556 nM

Molecule: COc1cc2c(cc1CCNc1cc(-c3ccc(C(=O)O)c(SC)c3)ncn1)CCCN2 [Ex 329]
- IC50 [2]: 755 nM
- IC50 [3]: 956 nM
- IC50 [4]: 798 nM

Molecule: CCOc1cc(-c2cc(NCCc3ccc4ncccc4c3)ncn2)sc1-c1noc(=O)[nH]1 [Example 338, 3-{3-Ethoxy-5-[6-(2-quinolin-6-yl-ethylamino)-pyrimidin-4-y]-thiophen-2-yl}-[1,2,4]oxadiazol-5(4H)-one]
- IC50 [2]: 459 nM
- IC50 [3]: 64 nM
- IC50 [4]: 15 nM

Molecule: (4-{6-[2-(7-Ethynyl-2,3-dihydro-benzo[1,4]dioxin-6-yl)-ethylamino]-pyrimidin-4-yl}-2-propyl-phenyl)-acetic acid [Example 440]
- IC50 [2]: 25 nM
- IC50 ([3]; BT549 cells): 65 nM
- IC50 [4]: 51 nM
